Experimental data published in patent US20060135432A1, “Agonists and antagonists of conadotropin-releasing hormone-2, and use thereof” (priority 2002, published 2006).
pEC50, pIC50: −log10 of the molar value. Where a SMILES comes first, the peptide text is derived from it. [ ]: non-standard residue; d: D form. dPhe(4-Cl) = N[C@H](Cc1ccc(Cl)cc1)C(=O)O; d2Nal = N[C@H](Cc1ccc2ccccc2c1)C(=O)O; dCit = NC(=O)NCCC[C@@H](N)C(=O)O; d3Pal = N[C@H](Cc1cccnc1)C(=O)O; pGlu = O=C1CC[C@@H](C(=O)O)N1

Key:
rat GnRHR [1] = target: T1, rat GnRHR (Rattus norvegicus, UniProt P30969); test: Inhibition of GnRH-1-induced IP production in GH3 cells expressing rat GnRHR; assay type: cell-based
T1 construct: expressed in transfected cells; host or cells: GH3 cells, retroviral infection
T1 sequence (P30969 1-327): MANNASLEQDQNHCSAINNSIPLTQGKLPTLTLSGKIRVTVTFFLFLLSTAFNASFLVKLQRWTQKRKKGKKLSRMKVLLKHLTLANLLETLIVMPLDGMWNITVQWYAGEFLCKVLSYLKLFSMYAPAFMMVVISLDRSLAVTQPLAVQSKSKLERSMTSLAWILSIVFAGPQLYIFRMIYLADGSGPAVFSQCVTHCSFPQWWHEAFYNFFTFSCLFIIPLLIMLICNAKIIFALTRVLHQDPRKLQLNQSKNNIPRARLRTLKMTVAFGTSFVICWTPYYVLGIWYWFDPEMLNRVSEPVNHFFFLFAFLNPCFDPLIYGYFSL
Procedure: (§1) GH3 cell lines were obtained from the Cell Line Bank at the Cancer Research Center, Seoul National University College of Medicine, located in Seoul, Republic of Korea. The GH3 cell lines were infected with retroviruses comprising genes encoding bfGnRHR-1, bfGnRHR-2, and bfGnRHR-3 which are bullfrog GnRH receptors, and rat GnRHR, and cell lines expressing each of these receptors were obtained. The GH3 cells expressing bfGnRHR-1, bfGnRHR-2, bfGnRHR-3, and rat GnRHR were cultured on 12-well plates. After 24 hours, the cells were cultured again for 24 hours in a media containing no inositol, to which H^3-myoinositol was added. The resultant cells were washed with buffer A (140 mM NaCl, 20 mM HEPES, 4 mM KCl, 8 mM D-Glucose, 1 mM MgCl2, 1 mM CaCl2, 1 mg/ml BSA) and then cultured in buffer A containing 10 mM LiCl at 37°C. for 30 minutes. Thereafter, they were treated with GnRH having a suitable concentration, cultured at 37° C. for another 30 minutes, and then the media was eliminated. The cells were treated with 10 mM of ice-cold formic acid to terminate the reaction, and the cell extracts were mixed with Dowex anionic exchange resins. These resins were washed with distilled water, IP was extracted with 1 M ammonium formate/0.1 M formic acid, and cpm (count per minute) was determined.
However, Trptorelix-1 could reduce the production of IP induced by 1 nM GnRH-2, in a concentration-dependent manner (FIG. 6a to FIG. 6c).

bullfrog GnRH receptors = test: Antagonist effect on IP production in GH3 cells expressing bullfrog GnRH receptors (bfGnRHR-2 and bfGnRHR-3 together); assay type: cell-based; settings: GH3 cells expressing bfGnRHR-2 and bfGnRHR-3, no GnRH-2
From the text: In summary, it is concluded that Trptorelix is a very specific antagonist for GnRH-2. GH3 cell lines were obtained from the Cell Line Bank at the Cancer Research Center, Seoul National University College of Medicine, located in Seoul, Republic of Korea. The GH3 cell lines were infected with retroviruses comprising genes encoding […]-2, and bfGnRHR-3 which are bullfrog GnRH receptors, and rat GnRHR, and cell lines expressing each of these receptors were obtained. The GH3 cells expressing […]-3, and rat GnRHR were cultured on 12-well plates. After 24 hours, the cells were cultured again for 24 hours in a media containing no inositol, to which H^3-myoinositol was added. The resultant cells were washed with buffer A (140 mM NaCl, 20 mM HEPES, 4 mM KCl, 8 mM D-Glucose, 1 mM MgCl2, 1 mM CaCl2, 1 mg/ml BSA) and then cultured in buffer A containing 10 mM LiCl at 37°C. for 30 minutes. Thereafter, they were treated with GnRH having a suitable concentration, cultured at 37° C. for another 30 minutes, and then the media was eliminated. The cells were treated with 10 mM of ice-cold formic acid to terminate the reaction, and the cell extracts were mixed with Dowex anionic exchange resins. These resins were washed with distilled water, IP was extracted with 1 M ammonium formate/0.1 M formic acid, and cpm (count per minute) was determined.

Primate GnRH-2 receptor [2] = test: Inhibition of GnRH-2-induced c-fos-luc luciferase activity in cells expressing Primate GnRH-2 receptor; assay type: cell-based; settings: treated at the same time as GnRH-2
Procedure: (§2) Complimentary DNA (cDNA) for a Primate GnRH-2 receptor was obtained from a CV-1 cell genome. […] Plasmids having Primate GnRH-2 receptors where transfected into CV-1 cells. To assay the activity of the receptor, c-fos-luc where a luciferase gene is fused with a c-fos promoter was co-transfected as a probe gene. After 48 hours from transfection, the cells were treated with GnRH-2 agonists and then the activity of luciferase was assayed (Seong et al., Endocrinology vol 144 2003, 454-466).
In the same manner as in 2-3 above, Primate GnRH-2 receptors were co-transfected along with c-fos-luc reporter genes, and after 48 hours, GnRH-2 and GnRH-2 antagonists were treated thereinto at the same time and then the effect of GnRH-2 antagonists was observed.

TSU-Pri cells = test: Binding of radiolabeled GnRH to TSU-Pri prostate cancer cells; design: species or system human; settings: room temperature, 6 hours
Procedure: TSU-Pri, which is one of the prostate cancer cell lines, was cultured along with the radiolabeled I^125GnRH-1 and I^125GnRH-2. […] The radiolabeled GnRH and the cells were cultured at room temperature for 6 hours, and then washed with PBS (phosphate-buffered saline) several times to eliminate the unbound GnRH. Thereafter, the cells were isolated and radioactivity from the cells was measured using a y-counter.

rat GnRHR [3] = target: T1, rat GnRHR; test: I125-GnRH-2 competitive ligand-receptor binding, membranes of GH3 cells expressing rat GnRHR; settings: competition with I125-GnRH-2, 4 °C, 16 hours; read-out: Binding affinity (log IC50 value) (converted)
Procedure: To determine the binding affinity between GnRH and GnRH receptors, GnRH-2 was radiolabeled with I^125. […] After 48 hours, the cells were homogenized to obtain cellular membranes, which were then dissolved in binding buffer (40 mM Tris, pH 7.4, 2 mM MgCl2). 20 μg of membrane proteins were reacted with I^125-GnRH-2 at 4° C. for 16 hours. […] After the reaction was completed, 1^125-GnRH-2 bound to the receptors was filtered using a Brandel harvester, and cpm was measured using a y-counter.

bfGnRHR = test: IP production in cells expressing bfGnRHR (bullfrog receptors taken together); assay type: cell-based
Procedure: as §1, with “determined. […]” for “determined.”

Primate GnRH-2 receptor [4] = test: c-fos-luc luciferase activation in CV-1 cells expressing Primate GnRH-2 receptor; assay type: cell-based
Procedure: as §2
Of the GnRH-2 receptors, [D-Ala^6]GnRH-2 performed excellently, showing effects about 3 times that of a wild-type ligand, GnRH-2. […] When analogs where the 5th, 7th, and 8th amino acids of [D-Ala^6]GnRH-2 are substituted were used, it was observed that their effects were weaker than [D-Ala^6]GnRH-2, and therefore it can be seen that it is important to maintain His, Trp, and Tyr that are found at the 5th, 7th, and 8th positions of GnRH-2 as they are (FIG. 3b).

rat GnRHR [5] = target: T1, rat GnRHR; test: Inositol phosphate (IP) production in GH3 cells expressing rat GnRHR; assay type: cell-based
From the text: The GnRH receptor, a membrane protein connected with the G protein, activates the G protein when activated by a ligand, and the activated G protein activates phospholipase C and thereby the synthesis of inositol phosphate (IP), which is the second transmitter in cells, is increased. Based on this principle, the activity of a receptor can be investigated by measuring the amount of IP within cells. GH3 cell lines were obtained from the Cell Line Bank at the Cancer Research Center, Seoul National University College of Medicine, located in Seoul, Republic of Korea. The GH3 cell lines were infected with retroviruses comprising genes encoding […]-2, and bfGnRHR-3 which are bullfrog GnRH receptors, and rat GnRHR, and cell lines expressing each of these receptors were obtained. The GH3 cells expressing […]-3, and rat GnRHR were cultured on 12-well plates. After 24 hours, the cells were cultured again for 24 hours in a media containing no inositol, to which H^3-myoinositol was added. […] Thereafter, they were treated with GnRH having a suitable concentration, cultured at 37° C. for another 30 minutes, and then the media was eliminated. The cells were treated with 10 mM of ice-cold formic acid to terminate the reaction, and the cell extracts were mixed with Dowex anionic exchange resins. These resins were washed with distilled water, IP was extracted with 1 M ammonium formate/0.1 M formic acid, and cpm (count per minute) was determined. The GH3 cell lines were infected with retroviruses comprising genes encoding […]-2, and bfGnRHR-3 which are bullfrog GnRH receptors, and rat GnRHR, and cell lines expressing each of these receptors were obtained.

[6] = tested on: male rat (Sprague Dawley); test: Serum LH and testosterone after injection into male rat (radioimmunoassay); assay type: in vivo; settings: 10 μg injected
Procedure: Example 3: GnRH-2 Agonist-induced serum LH and testosterone levels [D-Ala^6]GnRH-2 was dissolved in saline at a concentration of 100 μg/ml, and then 10 μg of [D-Ala^6]GnRH-2 was injected into the cervix of a male rat (Sprague Dawley rat having a weight of approximately 100 g). 1, 2, 4, and 8 hours after the injection, serum was obtained from the rat. The concentration of luteinizing hormone and testosterone present in the serum was measured by radioimmunoassay.

bfGnRHR-1 = test: Inositol phosphate (IP) production in GH3 cells expressing bfGnRHR-1; assay type: cell-based, bullfrog
From the text: The GnRH receptor, a membrane protein connected with the G protein, activates the G protein when activated by a ligand, and the activated G protein activates phospholipase C and thereby the synthesis of inositol phosphate (IP), which is the second transmitter in cells, is increased. Based on this principle, the activity of a receptor can be investigated by measuring the amount of IP within cells. GH3 cell lines were obtained from the Cell Line Bank at the Cancer Research Center, Seoul National University College of Medicine, located in Seoul, Republic of Korea. The GH3 cell lines were infected with retroviruses comprising genes encoding […]-2, and bfGnRHR-3 which are bullfrog GnRH receptors, and rat GnRHR, and cell lines expressing each of these receptors were obtained. The GH3 cells expressing […]-3, and rat GnRHR were cultured on 12-well plates. After 24 hours, the cells were cultured again for 24 hours in a media containing no inositol, to which H^3-myoinositol was added. […] Thereafter, they were treated with GnRH having a suitable concentration, cultured at 37° C. for another 30 minutes, and then the media was eliminated. […] These resins were washed with distilled water, IP was extracted with 1 M ammonium formate/0.1 M formic acid, and cpm (count per minute) was determined. […]

[7] = male rat about 100 g, 1, 2, 4, 8 hours

Row | Structure (SMILES) | pIC50 (rat GnRHR [1]) | fold lower effect than Cetrorelix (rat GnRHR [1]; rat GnRH receptors) | IP production by the antagonist alone (bullfrog GnRH receptors) | effect on luciferase activity induced by GnRH-2 (Primate GnRH-2 receptor [2]) | effect of unradiolabeled competitor on binding of radiolabeled GnRH-2 to TSU-Pri cells (TSU-Pri cells) | IC50 (rat GnRHR [3]) | fold higher sensitivity than GnRH-1 (bfGnRHR) | fold higher sensitivity than GnRH-2 (bfGnRHR) | effect, times that of wild-type ligand GnRH-2 (Primate GnRH-2 receptor [4]) | pEC50 (rat GnRHR [5]; GH3 cells, 30 min, given as log EC50 (negative values)) | sensitivity compared with GnRH-1 (rat GnRHR [5]; rat GnRHR) | time of testosterone peak point after injection ([6]; male rat) | serum luteinizing hormone (LH) [6, 7] | serum testosterone [6, 7] | concentration activating bfGnRHR-1, fold lower than GnRH-2 (bfGnRHR-1)
1 | CC(=O)N[C@H](Cc1ccc2ccccc2c1)C(=O)N[C@H](Cc1ccc(Cl)cc1)C(=O)N[C@H](Cc1cccnc1)C(=O)N[C@@H](CO)C(=O)N[C@@H](Cc1ccc(O)cc1)C(=O)N[C@H](CCCNC(N)=O)C(=O)N[C@@H](Cc1c[nH]c2ccccc12)C(=O)N[C@@H](Cc1ccc(O)cc1)C(=O)N1CCC[C@H]1C(=O)N[C@H](C)C(N)=O [Trptorelix-1, Ac-D2Nal-(4Cl)D-Phe-D-3Pal-Ser-Tyr-D-Cit-Trp-Tyr-Pro-DAlaNH2] (Ac-[d2Nal][dPhe(4-Cl)][d3Pal]SY[dCit]WYP[dA]-NH2) | 9.27 | ~60 fold | production of IP was not observed | reduced in a concentration-dependent manner |  |  |  |  |  |  |  |  |  |  | 
2 | C[C@@H](NC(=O)[C@H](Cc1c[nH]cn1)NC(=O)[C@H](CO)NC(=O)[C@H](Cc1c[nH]c2ccccc12)NC(=O)[C@H](Cc1c[nH]cn1)NC(=O)[C@@H]1CCC(=O)N1)C(=O)N[C@@H](Cc1c[nH]c2ccccc12)C(=O)N[C@@H](Cc1ccc(O)cc1)C(=O)N1CCC[C@H]1C(=O)NCC(N)=O [[D-Ala^6]GnRH-2, p-Glu-His-Trp-Ser-His-D-Ala-Trp-Tyr-Pro-GlyNH2] ([pGlu]HWSH[dA]WYPG-NH2) |  |  |  |  | reduced in a concentration-dependent manner | 141 nM | 40-20,000 fold | 2.5-10 fold | about 3 times | 8.49 | a sensitivity lower than 10-fold | 4 h | an increase of luteinizing hormone (LH) was observed in only one hour | began to rapidly increase from 2 hours after the injection | ~8 fold
